Entries after “also recorded” stand apart in the source; their conditions may differ.
Tests used:
[1] = test system: phosphorylated SMADs 1/5/8; test: p-SMAD1/5/8 immunofluorescence in atherosclerotic lesions of LDLR−/− mice; format: in vivo
Description: BMP signaling activity in the nascent lesions of LDLR^−/− mice was characterized. Phosphorylated BMP-responsive SMADs (p-SMAD1/5/8), effectors of the BMP signaling pathway that are retained in the nuclei of activated cells, were detected by immunofluorescence in endothelial cells, macrophages, and the media of atheromatous lesions (FIG. 1b), particularly in the lesser curvature of the aorta, beginning three weeks on HFD. Activation of BMP signaling persisted for at least 20 weeks and was abundant near calcific lesions (FIG. 3). To confirm that the activation of SMAD1/5/8 observed in the vessels of LDLR^−/− mice was attributable to BMP signaling, a BMP type I receptor inhibitor, compound 13, was administered (2.5 mg/kg ip daily for five days) to LDLR^−/− mice that had received HFD for 6 weeks.
For immunofluorescence, frozen sections were post-fixed in cold methanol and incubated with polyclonal antibodies specific for p-SMAD1/5/8 (1:100, Cell Signaling, Danvers, Mass.) or MAC2 (1:100, Cedarlane, Burlington, ON) followed by FITC labeled Goat Anti-Rabbit IgG or Rhodamine Goat Anti-Rat IgG (both Jackson Immuno Research, West Grove, Pa.), respectively.
LDLr−/− mice were started on a hypercholesterolemic diet at 8 weeks, and treated with either vehicle (saline) or a BMP inhibitor positive control compound (compound 13, 2.5 mg/kg/d intraperitoneally) for an additional 8 weeks. Aortae were harvested and fixed, and then stained with antibodies sensitive for the BMP effector molecule, phosphorylated-SMAD1/5/8, and counterstained with DAPI nuclear stain. Within 6-8 weeks of being subjected to a high fat diet, LDR−/− mice developed fatty lesions in the intima of the aortic root, based on traditional histochemical staining techniques (data not shown). […] Thus, the cellular components of lipid rich plaques, predominantly macrophage-derived foam cells, had evidence of intense activation of the BMP signaling pathway. […]

[2] = test system: human aortic endothelial cells; test: Reactive oxygen species in human aortic endothelial cells; format: cell-based; conditions: HAECs, compound 13 100 nM, ALK3-Fc 500 ng/mL
Experimental: Cells plated in a 96-well format were pre-treated with compound 13, ALK3-Fc, or vehicle for 30 min followed by treatment with oxidized LDL, BMP2, or vehicle for 20 hours after starvation for six hours. H2O2 production with chloromethyl 2′,7′-dichlorodihydrofluorescein diacetate (DCF, 2 μM) and NADPH oxidase activity with lucigenin were measured as previously described. (Ichinose, F., et al. Cardiomyocyte-specific overexpression of nitric oxide synthase 3 prevents myocardial dysfunction in murine models of septic shock. Circ Res 100, 130-139 (2007); Sorescu, G. P., et al. Bone morphogenic protein 4 produced in endothelial cells by oscillatory shear stress induces monocyte adhesion by stimulating reactive oxygen species production from a nox1-based NADPH oxidase. Circ Res 95, 773-779 (2004); and Abid, M. R., Spokes, K. C., Shih, S. C. & Aird, W. C. NADPH oxidase activity selectively modulates vascular endothelial growth factor signaling pathways. J Biol Chem 282, 35373-35385 (2007).)
Hepatoma G2 (HepG2) cells and human aortic endothelial cells (HAECs) were purchased from the American type culture collection (Manassas, Va.). HepG2 cells were maintained in Eagle's Minimum Essential Medium (EMEM) supplemented with 10% fetal bovine serum, 100 units/ml of penicillin, 0.1 mg/ml of streptomycin and glutamine. HAECs were cultured in endothelial cell basal medium (EBM 2) supplemented with the EBM2 bullet kit (Lonza, Basel, Switzerland). For experiments, cells were seeded into 6 or 12-well plates (BD Falcon, Franklin Lakes, N.J.) at a concentration of 0.5×10^6 cells per 5 mL of media. HAECs were maintained in EBM 2 with 0.1% FBS without additional growth factors for all experiments. HepG2 cells were grown to 70% confluence before they were incubated in EMEM enriched with 0.1% FBS. ApoB-100 measurements were performed in supernatants from HepG2 that had been incubated in EMEM containing 0.5% bovine serum albumin using a commercially available Human ApoB-100 ELISA kit (Mabtech AB, Nacka Strand, Sweden). […]

[3] = test system: constitutively-active mutant form of ALK2; test: Mouse model of FOP (constitutively-active mutant ALK2); format: in vivo; conditions: 3 mg/kg ip twice daily
Description: A mouse model of FOP has been developed in which expression of a constitutively-active mutant form of ALK2 is induced by injecting the popliteal fossa of a genetically-modified mouse with an adenovirus directing expression of Cre recombinase. This model reproduces the ectopic calcification and disability seen in FOP patients.

**Q.** c1ccc2c(-c3cnn4cc(-c5ccc(N6CCNCC6)cc5)cnc34)ccnc2c1 [Compound 13, 4-[6-(4-piperazin-1-ylphenyl)pyrazolo[1,5-a]pyrimidin-3-yl]quinoline] was tested. Which “p-SMAD1/5/8 within atherosclerotic lesions” value ([1]; LDLR−/− mice on high fat diet 6 weeks, treated five days, compound 13 2.5 mg/kg ip daily, ALK3-Fc 2 mg/kg ip every other day) did it give?
**A.** suppressed phosphorylation of SMADs 1/5/8; also recorded: markedly diminished the detection of p-SMAD1/5/8

**Q.** And the “p-SMAD1/5/8 staining in aorta” value ([1]; LDLR−/− mice treated during 6 weeks of high fat diet, compound 13 2.5 mg/kg ip daily, ALK3-Fc every other day, 2.5 mg/kg)?
**A.** decreased staining for phosphorylated SMAD1/5/8

**Q.** And the “phosphorylated-SMAD1/5/8 staining in atheroma” value ([1]; LDLr−/− mice, hypercholesterolemic diet and treatment 8 weeks, 2.5 mg/kg/d ip)?
**A.** greatly diminished

**Q.** And the “BMP2-induced generation of reactive oxygen species (DCF fluorescence)” value ([2]; BMP2 20 ng/mL)?
**A.** compound 13- and ALK3-Fc-sensitive manner

**Q.** What about the “oxLDL-induced generation of reactive oxygen species (DCF fluorescence)” value ([2]; oxLDL 80 μg/mL) of the same compound?
**A.** could inhibit oxLDL-induced ROS production

**Q.** What about the “oxLDL-induced generation of reactive oxygen species (lucigenin fluorescence)” value [2] of the same compound?
**A.** could be blocked

**Q.** What about the “ectopic calcification and disability” value [3] of the same compound?
**A.** prevented the ectopic calcification and disability
